The text below walks through data of PubChem BioAssay AID1195 (EPA DSSTox, 2008).

The data set concerns human maximum recommended daily dose, FDA database. The data set is described as follows: DSSTox (FDAMDD) FDA Maximum (Recommended) Daily Dose Database. The settings on record: hits give low values. In a few lines:
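MRDD values come from clinical trials with daily oral dosing, usually for 3–12 months, for the average adult, in mg/day converted to mg/kg-bw/day assuming 60 kg. Antineoplastic mg/m2 doses are divided by 37. Activity score maps log10(1/MRDD mmol) onto 1–100.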

[1] abbreviates: TherapeuticCategory: glucocorticoid.
Setting [2] is: TherapeuticCategory: anticholinergic.
The mark [3] stands for this setting: TherapeuticCategory: antibacterial.
Where [4] appears, read: TherapeuticCategory: diagnostic aid.
The mark [5] stands for this setting: TherapeuticCategory: antihypertensive.
The mark [6] stands for this setting: TherapeuticCategory: oxytocic, abortifacient.

Each structure is given as a SMILES string.

For the molecule `C[C@H]1C[C@H]2[C@@H]3CCC4=CC(=O)C=C[C@]4(C)[C@@]3(F)[C@@H](O)C[C@]2(C)[C@@]1(O)C(=O)CO`, under setting [1], the maximum recommended daily dose (mmol/kg-bw/day) was 0.000382.
As for `O=C(c1ccc(OCCN2CCCCC2)cc1)c1c(-c2ccc(O)cc2)sc2cc(O)ccc12`, where the note is “TherapeuticCategory: antiosteoporotic, antiestrogen”, the maximum recommended daily dose (mmol/kg-bw/day) was 0.0211.
On to `CC[N+](C)(C)c1cccc(O)c1`, for which the maximum recommended daily dose (mmol/kg-bw/day) (TherapeuticCategory: cholinergic) is 0.00347.
On to `NC(CO)(CO)CO`, for which the maximum recommended daily dose (mmol/kg-bw/day) (TherapeuticCategory: alkalizer) was 2.48.
On to `CC(=O)CCCCn1c(=O)c2c(ncn2C)n(C)c1=O`, for which the maximum recommended daily dose (mmol/kg-bw/day) (TherapeuticCategory: vasodilator) is 0.0719.
For `C[C@]12C=CC(=O)C=C1CC[C@@H]1[C@@H]2[C@@H](O)C[C@@]2(C)[C@H]1CC[C@]2(O)C(=O)COC(=O)CCC(=O)O`, under setting [1], the maximum recommended daily dose (mmol/kg-bw/day) was 0.0069.
In the case of `C[N+]1([O-])[C@@H]2CC[C@H]1CC(OC(=O)C(CO)c1ccccc1)C2` (some centres not stated), the maximum recommended daily dose (mmol/kg-bw/day) under setting [2] is 0.000164.
Turning to `C1CCN2C[C@@H]3C[C@@H](CN4CCCC[C@@H]34)[C@H]2C1`, for the setting “TherapeuticCategory: oxytocic”, the maximum recommended daily dose (mmol/kg-bw/day) was 0.0427.
Turning to `CCN(CC)CCSC(=O)C(c1ccccc1)c1ccccc1`, the maximum recommended daily dose (mmol/kg-bw/day) (TherapeuticCategory: anticholinergic, smooth muscle relaxant) was 0.0153.
As to `C[C@@H](O)[C@H]1C(=O)N2C(C(=O)O)=C(SCCN=CN)C[C@H]12`, under setting [3], the maximum recommended daily dose (mmol/kg-bw/day) is 0.223.
Turning to `CC(C)[N+](C)(CCOC(=O)C1c2ccccc2Oc2ccccc21)C(C)C`, the maximum recommended daily dose (mmol/kg-bw/day) under setting [2] was 0.00279.
On to `C[C@]12C=CC(=O)C=C1CC[C@@H]1[C@@H]2[C@@H](O)C[C@@]2(C)[C@H]1CC[C@]2(O)C(=O)CO`, for which, under setting [1], the maximum recommended daily dose (mmol/kg-bw/day) is 0.00924.
In the case of `CNCCc1ccc(OC(=O)C(C)C)c(OC(=O)C(C)C)c1`, the maximum recommended daily dose (mmol/kg-bw/day) (TherapeuticCategory: cardiotonic) is 0.0325.
Turning to `COc1cc(C(=O)N2CCOCC2)cc(OC)c1OC`, the maximum recommended daily dose (mmol/kg-bw/day) (TherapeuticCategory: sedative) was 0.178.
As to `C[C@H](O)C(=O)Nc1c(I)c(C(=O)NC(CO)CO)c(I)c(C(=O)NC(CO)CO)c1I`, the maximum recommended daily dose (mmol/kg-bw/day) under setting [4] is 0.129.
Take `CC(C)(C)NCC(O)c1cc(Cl)c(N)c(Cl)c1` (configuration not stated): for the setting “TherapeuticCategory: antiasthmatic”, the maximum recommended daily dose (mmol/kg-bw/day) is 3.61e-06.
Turning to `COc1ccc(C(=O)Nc2ccccc2CCC2CCCCN2C)cc1` (configuration not stated), the maximum recommended daily dose (mmol/kg-bw/day) (TherapeuticCategory: antiarrhythmic) was 0.00945.
Turning to `O=C(O)CCC(=O)c1ccc2c(c1)-c1cccc3cccc-2c13`, the maximum recommended daily dose (mmol/kg-bw/day) (TherapeuticCategory: choleretic) is 0.0552.
Turning to `COc1ccc2c(c1)[C@]13CCCC[C@@H]1[C@H](C2)N(C)CC3`, under “TherapeuticCategory: antitussive”, the maximum recommended daily dose (mmol/kg-bw/day) is 0.00737.
Take `NS(=O)(=O)c1cc2c(cc1Cl)NC=NS2(=O)=O`: the maximum recommended daily dose (mmol/kg-bw/day) (TherapeuticCategory: diuretic) is 0.113.
Regarding `C/C=C\C1=C(C(=O)O)N2C(=O)[C@@H](NC(=O)[C@H](N)c3ccc(O)cc3)[C@H]2SC1`, the maximum recommended daily dose (mmol/kg-bw/day) under setting [3] was 0.0429.
As to `CN1[C@@H]2CC[C@H]1CC(OC(c1ccccc1)c1ccccc1)C2` (some centres not stated), under setting [2], the maximum recommended daily dose (mmol/kg-bw/day) was 0.000325.
As to `CC(=O)[C@H]1CC[C@H]2[C@@H]3C=CC4=CC(=O)CC[C@@]4(C)[C@@H]3CC[C@]12C`, the maximum recommended daily dose (mmol/kg-bw/day) (TherapeuticCategory: progestogen) is 0.0016.
As to `CN1CCC(OC(c2ccccc2)c2ccccc2)CC1`, the maximum recommended daily dose (mmol/kg-bw/day) (TherapeuticCategory: antihistaminic) is 0.00118.
Turning to `CO[C@@H]1[C@@H](O[C@@H]2O[C@H](C)[C@@H](O[C@H]3C[C@@](C)(O)[C@@H](O)[C@H](C)O3)[C@H](N(C)C)[C@H]2O)[C@@H](CC=O)C[C@@H](C)[C@@H](O[C@@H]2CC[C@H](N(C)C)[C@@H](C)O2)/C=C/C=C/C[C@@H](C)OC(=O)C[C@H]1O`, the maximum recommended daily dose (mmol/kg-bw/day) under setting [3] is 0.0791.
On to `CC1(C)S[C@@H]2[C@H](NC(=O)C3(N)CCCCC3)C(=O)N2[C@H]1C(=O)O`, for which the maximum recommended daily dose (mmol/kg-bw/day) under setting [3] is 0.0975.
Take `Clc1cccc(Cl)c1NC1=NCCN1`: the maximum recommended daily dose (mmol/kg-bw/day) under setting [5] is 0.000174.
On to `CCO`, for which the maximum recommended daily dose (mmol/kg-bw/day) (TherapeuticCategory: topical antiseptic) was 2.17.
Regarding `CC(=O)OCC(=O)[C@@]1(O)[C@H](C)C[C@H]2[C@@H]3CCC4=CC(=O)C=C[C@]4(C)[C@@]3(F)C(O)C[C@@]21C` (some centres not stated), the maximum recommended daily dose (mmol/kg-bw/day) (TherapeuticCategory: glucocorticoid, anti inflammatory) is 0.000345.
For the molecule `Clc1ccc2nsnc2c1NC1=NCCN1`, under “TherapeuticCategory: skeletal muscle relaxant”, the maximum recommended daily dose (mmol/kg-bw/day) is 0.00236.
Consider `CC(C)(N)Cc1ccccc1Cl`, for which the maximum recommended daily dose (mmol/kg-bw/day) (TherapeuticCategory: anorexic) is 0.00454.
As for `CN(C)C=Nc1c(I)cc(I)c(CCC(=O)O)c1I`, the maximum recommended daily dose (mmol/kg-bw/day) under setting [4] was 0.167.
Regarding `COc1ccc2c3c1O[C@H]1C(=O)CC[C@H]4[C@@H](C2)N(C)CC[C@]314`, the maximum recommended daily dose (mmol/kg-bw/day) (TherapeuticCategory: analgesic) is 0.00251.
As for `CCN(CC)C(=O)c1ccc(O)c(OC)c1`, the maximum recommended daily dose (mmol/kg-bw/day) (TherapeuticCategory: central and respiratory stimulant) was 0.0187.
Consider `CCCCC[C@H](O)/C=C/[C@H]1[C@H](O)CC(=O)[C@@H]1C/C=C\CCCC(=O)O`, for which the maximum recommended daily dose (mmol/kg-bw/day) under setting [6] is 7.09e-05.
For `CCN(CC)C(C)CN1c2ccccc2Sc2ccccc21` (configuration not stated), the maximum recommended daily dose (mmol/kg-bw/day) (TherapeuticCategory: antiparkinsonian, anticholinergic) was 0.032.
`CN1CC[C@]23CCCC[C@H]2[C@H]1Cc1ccc(O)cc13`: the maximum recommended daily dose (mmol/kg-bw/day) (TherapeuticCategory: narcotic analgesic) is 0.000583.
In the case of `CC(=O)[C@@]12O[C@](C)(c3ccccc3)O[C@@H]1C[C@H]1[C@@H]3CCC4=CC(=O)CC[C@]4(C)[C@H]3CC[C@@]12C`, under “TherapeuticCategory: acne treatment”, the maximum recommended daily dose (mmol/kg-bw/day) was 0.00557.
For `Cn1cnc([N+](=O)[O-])c1Sc1ncnc2nc[nH]c12`, the maximum recommended daily dose (mmol/kg-bw/day) (TherapeuticCategory: immunosuppressant, antirheumatic) is 0.018.
Turning to `Cn1c(=O)c2c(ncn2CC(O)CO)n(C)c1=O` (configuration not stated), the maximum recommended daily dose (mmol/kg-bw/day) (TherapeuticCategory: bronchodilator) was 0.236.
Consider `NC(=O)NC(=O)Cc1ccccc1`, for which the maximum recommended daily dose (mmol/kg-bw/day) (TherapeuticCategory: anticonvulsant) was 0.281.
Take `Cn1nnnc1SCC1=C(C(=O)O)N2C(=O)[C@@H](NC(=O)[C@H](OC=O)c3ccccc3)[C@H]2SC1`: the maximum recommended daily dose (mmol/kg-bw/day) under setting [3] is 0.195.
Consider `Nc1nc2c(ncn2COCCO)c(=O)[nH]1`, for which, under “TherapeuticCategory: antiviral”, the maximum recommended daily dose (mmol/kg-bw/day) was 0.0591.
Regarding `CCN(CC)CCCC(C)Nc1c2ccc(Cl)cc2nc2ccc(OC)cc12` (configuration not stated), the maximum recommended daily dose (mmol/kg-bw/day) (TherapeuticCategory: antithelmintic, antimalarial) was 0.0125.
On to `CCOC(=O)c1ccc(N)cc1`, for which the maximum recommended daily dose (mmol/kg-bw/day) (TherapeuticCategory: topical anesthetic) was 0.00726.
As for `CCCCC[C@H](O)/C=C/[C@@H]1[C@@H](C/C=C\CCCC(=O)O)[C@@H](O)C[C@H]1O`, the maximum recommended daily dose (mmol/kg-bw/day) under setting [6] is 3.53e-05.
For the molecule `N[C@@H](Cc1cnc[nH]1)C(=O)O`, the maximum recommended daily dose (mmol/kg-bw/day) (TherapeuticCategory: none) was 0.645.
Take `CCC[C@@H]1C[C@@H](C(=O)N[C@@H]([C@H]2O[C@H](SC)[C@H](O)[C@@H](O)[C@H]2O)[C@@H](C)O)N(C)C1`: under setting [3], the maximum recommended daily dose (mmol/kg-bw/day) is 0.0819.
Turning to `CN(C)CC/C=C1\c2ccccc2Sc2ccc(Cl)cc21`, for the setting “TherapeuticCategory: antipsychotic”, the maximum recommended daily dose (mmol/kg-bw/day) was 0.0105.
Consider `Cc1ccc(O)c([C@H](CCN(C(C)C)C(C)C)c2ccccc2)c1`, for which, where the note is “TherapeuticCategory: cholinergic (acetyl-choline) receptor blockers”, the maximum recommended daily dose (mmol/kg-bw/day) was 0.0246.
For `CCC(C)C(C(=O)OC1CCN(C)CC1)c1ccccc1` (configuration not stated), under setting [2], the maximum recommended daily dose (mmol/kg-bw/day) is 0.00173.
As for `CCOC(=O)c1ncn2c1CN(C)C(=O)c1cc(F)ccc1-2`, under “TherapeuticCategory: benzodiazepine antagonist”, the maximum recommended daily dose (mmol/kg-bw/day) is 0.000165.
For the molecule `C[C@@H](Cc1ccccc1)N(C)Cc1ccccc1`, the maximum recommended daily dose (mmol/kg-bw/day) (TherapeuticCategory: anorexic) is 0.0104.
Turning to `Nc1ccn([C@H]2CS[C@@H](CO)O2)c(=O)n1`, the maximum recommended daily dose (mmol/kg-bw/day) (TherapeuticCategory: antiviral) was 0.0218.
On to `CCC(=O)OC(OP(=O)(CCCCc1ccccc1)CC(=O)N1C[C@H](C2CCCCC2)C[C@H]1C(=O)O)C(C)C` (some centres not stated), for which the maximum recommended daily dose (mmol/kg-bw/day) under setting [5] is 0.00236.
Take `C[C@H]1C[C@@H]2[C@H]([C@@H](O)C[C@@]3(C)[C@H]2CC[C@]3(O)C(=O)COC(=O)CCC(=O)O)[C@@]2(C)C=CC(=O)C=C12`: the maximum recommended daily dose (mmol/kg-bw/day) under setting [1] was 0.0084.
For `N[C@@H](Cc1ccc(O)c(O)c1)C(=O)O`, the maximum recommended daily dose (mmol/kg-bw/day) (TherapeuticCategory: antiparkinsonian) is 0.674.
